# Patent US8598128B2, “Fructosylated puerarin, and preparation method and use thereof” (priority 2010, dated 2013)
# Entries after “also recorded” stand apart in the source; their conditions may differ.
# Assays:
# [1] = Metabokinetic experiment in blood after caudal vein injection; settings: 50 mg/kg caudal vein, n = 5
# Method: Embodiment 5: Metabokinetic Experiment of monofructosyl-β(2,6)-Puerarin in Blood
# In HPLC analysis, DIONEX was used, with chromatographic column as Discovery HS C18 ([…], 5 μm), feeding specimen volume 20 μL, column temperature 30° C., the detector was UVD170U, with detection wavelength of 254 nm, flowing phase: A, water, B, chromatographic class methanol, A:B=80:20, at flow rate of 1 mL/min.
# Sprague-Dawley mice (SD mice), with weight of 180-220 g, male and female in half, provided by Medical Experiment Center of Nantong University, with production permit No.: SCXK (Su) 20080010.
# SD mice were randomly divided into 2 groups of 5 each, fasting for 12 hours before experiment. Puerarin and monofructosyl-β(2,6)-puerarin were respectively dissolved in 20% 1,2-PG normal saline, and injected into mouse caudal vein at a dosage of 50 mg/kg. After injection, at t=0 min, 4 min, 7 min, 17 min, 40 min, 60 min, 120 min and 180 min, 0.5 mL of blood was taken from orbit and put into centrifugal tubes treated with liquaemin, then it was immediately separated by centrifuging at 3000 rpm for 15 min, to separate out plasma for analysis.
# Plasma of 100 μL was precisely taken and put into test tube, and 400 μL of methanol sedimented protein was added, they were mixed on vortex mixer for 5 min, then centrifuged at 10000 rpm for 10 min, and the supernatant was used for HPLC analysis.
# The plasma concentration of the puerarin and monofructosyl-β(2,6)-puerarin specimens prepared as per 3.2 was obtained by calculation with external reference method. The data obtained were analyzed using pharmacokinetics statistic software.
# [2] = system: myocardio ischemia mice; assay: Heart rate in pituitrin acute myocardial ischemia model; type: in vivo, Sprague-Dawley mice (SD mice)
# Excerpt: Embodiment 6: […] Pituitrin injection was purchased from Nanjing Xinbai Pharmaceutical Co., Ltd., normal saline injection from Nanjing Xiaoying Pharmaceutical Co., Ltd., and DMSO, PG, and anhydrous ethanol were of chromatographic class. […] The data were presented with, and tested with t. P<0.05 indicates substantial difference, P<0.01 indicates very substantial difference; and P<0.001 indicates extremely substantial difference.
# [3] = system: human breast cancer cell strain MDA-MB-231; assay: MDA-MB-231 cell toxicity test (MTT); type: cell-based; settings: 48 h; for OD value: MTT 490 nm
# Method: MDA-MB-231 cells were cultured in an incubator at 37° C. with 5% CO2 saturated humidity in the RPMI-1640 complete culture medium containing inactivated fetal calf serum with volume fraction of 10%, 100 U penicillin and streptomycin. Take MDA-MB-231 cells in logarithmic phase (primary culture bottle) and discard the culture solution. […] Prepare the suspended solution of cells and adjust the cell concentration with appropriate amount of complete culture medium to 3×10^4/mL. Fed the cells into a tissue culture plate 96, with cell suspended liquid of 180 μL in each case, and put the culture plate into a cell incubator (37° C., 5% CO2) for conventional culture. When cells grew to 50%-70%, add drug liquid of different concentration. […] For DMSO solvent control group, add 20 μL of PBS containing […] and for the blank group, add 20 μL of PBS. For each drug concentration, 6 complex cases were provided. Put back the culture plate into the cell incubator, after 48 h, add 20 μL MTT (5 mg/mL) solution and continue to incubate it in the incubator for 4 h, then remove the supernatant and dry it with tissue, add 200 μL DMSO into each case and vibrate it in the rocker without light for 15 min, to allow the crystal to fully dissolve. Determine the light absorption at 490 nm with a fully automatic ELISA instrument, and calculate the average suppression rate, suppression rate (%)=(control group A490−test group A490)/control group A490), the experiment was repeated three times. Relevant analysis and Student t tests in Microsoft Excel 2003 were used, and data are presented in X±SD.
# [4] = system: human chronmyelogenors leukemia cell strain K562; assay: K562 cell toxicity test (MTT); type: cell-based; settings: 48 h; for OD value: MTT 490 nm
# Method: K-562 cells were cultured in an incubator at 37° C. with 5% CO2 saturated humidity in the RPMI-1640 complete culture medium containing inactivated calf serum with volume fraction of 10%, 100 U penicillin and streptomycin. […] For each drug concentration, 6 complex cases were provided. Put back the culture plate into the cell incubator, after 48 h, add 20 μL MTT (5 mg/mL) solution and continue to incubate it in the incubator for 4 h, then each case was added with triple liquid 100 μL, put it overnight to allow the crystal to fully dissolve. Vibrate it with oscillator for 20 min and determine the light absorption at 490 nm with a fully automatic ELISA instrument, and calculate the average suppression rate, suppression rate (%)=(control group A490−test group A490)/control group A490), the experiment was repeated three times. Relevant analysis and Student t tests in Microsoft Excel 2003 were used, and data are presented in X±SD.
smiles,measurement,setting,value
"O=c1c(-c2ccc(O)cc2)coc2c([C@@H]3O[C@H](CO[C@]4(CO)O[C@H](CO)[C@@H](O)[C@@H]4O)[C@@H](O)[C@H](O)[C@H]3O)c(O)ccc12 [monofructosyl-β(2,6)-puerarin]",AUC (0-t),[1],5523.446 ± 688.104 mg/Lxmin
same,CL (whole body clearance),[1],9 ± 1 mL/min/kg
same,MRT (0-t),[1],25.707 ± 2.324 min
same,MRT (0-∞),[1],27.453 ± 2.976 min
same,Y,[1],0.256 ± 0.032 L/kg
same,t½ (half life of clearance),[1],19.741 ± 2.34 min
same,Heart rate,"[2]; 12.5 mg/kg, 5 s",433 ± 63 time · min^−1
same,Heart rate,"[2]; 12.5 mg/kg, 10 s",416 ± 79 time · min^−1
same,Heart rate,"[2]; 12.5 mg/kg, 15 s",411 ± 75 time · min^−1
same,Heart rate,"[2]; 12.5 mg/kg, 30 s",389 ± 72 time · min^−1
same,Heart rate,"[2]; 12.5 mg/kg, 1 min",347 ± 71 time · min^−1
same,Heart rate,"[2]; 12.5 mg/kg, 2 min",339 ± 57 time · min^−1
same,Heart rate,"[2]; 12.5 mg/kg, 5 min",349 ± 50 time · min^−1
same,Heart rate,"[2]; 12.5 mg/kg, 10 min",395 ± 45 time · min^−1
same,Heart rate,"[2]; 12.5 mg/kg, Normal",403 ± 54 time · min^−1
same,Heart rate,"[2]; 25 mg/kg, 5 s",476 ± 65 time · min^−1
same,Heart rate,"[2]; 25 mg/kg, 10 s",442 ± 81 time · min^−1
same,Heart rate,"[2]; 25 mg/kg, 15 s",405 ± 88 time · min^−1
same,Heart rate,"[2]; 25 mg/kg, 30 s",428 ± 65 time · min^−1
same,Heart rate,"[2]; 25 mg/kg, 1 min",403 ± 54 time · min^−1
same,Heart rate,"[2]; 25 mg/kg, 2 min",386 ± 41 time · min^−1
same,Heart rate,"[2]; 25 mg/kg, 5 min",375 ± 37 time · min^−1
same,Heart rate,"[2]; 25 mg/kg, 10 min",420 ± 43 time · min^−1
same,Heart rate,"[2]; 25 mg/kg, Normal",474 ± 68 time · min^−1
same,Heart rate,"[2]; 50 mg/kg, 5 s",485 ± 95 time · min^−1
same,Heart rate,"[2]; 50 mg/kg, 10 s",423 ± 84 time · min^−1
same,Heart rate,"[2]; 50 mg/kg, 15 s",420 ± 76 time · min^−1
same,Heart rate,"[2]; 50 mg/kg, 30 s",378 ± 34 time · min^−1
same,Heart rate,"[2]; 50 mg/kg, 1 min",327 ± 89 time · min^−1
same,Heart rate,"[2]; 50 mg/kg, 2 min",339 ± 45 time · min^−1
same,Heart rate,"[2]; 50 mg/kg, 5 min",347 ± 55 time · min^−1
same,Heart rate,"[2]; 50 mg/kg, 10 min",435 ± 72 time · min^−1
same,Heart rate,"[2]; 50 mg/kg, Normal",483 ± 91 time · min^−1
same,effect on heart rate restoration in words,"[2]; 12.5, 25 and 50 mg/kg",has certain therapy effect on the heart disorder caused by myocardial ischemia; also recorded: has certain therapy effect on the heart disorder caused by myocardio ischemia
same,Average suppression rate,[3]; 0.5 μmol/L,3.68%
same,OD value,[3]; 0.5 μmol/L,0.676 ± 0.021
same,Average suppression rate,[3]; 1 μmol/L,5.02%
same,OD value,[3]; 1 μmol/L,0.666 ± 0.069
same,Average suppression rate,[3]; 5 μmol/L,3.47%
same,OD value,[3]; 5 μmol/L,0.677 ± 0.081
same,Average suppression rate,[3]; 10 μmol/L,4.20%
same,OD value,[3]; 10 μmol/L,0.672 ± 0.085
same,Average suppression rate,[3]; 50 μmol/L,20.17%
same,OD value,[3]; 50 μmol/L,0.560 ± 0.062
same,Average suppression rate,[3]; 100 μmol/L,28.70%
same,OD value,[3]; 100 μmol/L,0.500 ± 0.068
same,Average suppression rate,[3]; 150 μmol/L,44.04%
same,OD value,[3]; 150 μmol/L,0.392 ± 0.041
same,Average suppression rate,[3]; 200 μmol/L,59.42%
same,OD value,[3]; 200 μmol/L,0.285 ± 0.067
same,Average suppression rate,[4]; 1 μmol/L,7.85%
same,OD value,[4]; 1 μmol/L,0.950 ± 0.041
same,Average suppression rate,[4]; 5 μmol/L,7.53%
same,OD value,[4]; 5 μmol/L,0.950 ± 0.018
same,Average suppression rate,[4]; 10 μmol/L,6.76%
same,OD value,[4]; 10 μmol/L,0.958 ± 0.022
same,Average suppression rate,[4]; 20 μmol/L,6.16%
same,OD value,[4]; 20 μmol/L,0.963 ± 0.055
same,Average suppression rate,[4]; 50 μmol/L,11.14%
same,OD value,[4]; 50 μmol/L,0.913 ± 0.048
same,Average suppression rate,[4]; 100 μmol/L,16.41%
same,OD value,[4]; 100 μmol/L,0.858 ± 0.028
same,Average suppression rate,[4]; 150 μmol/L,29.84%
same,OD value,[4]; 150 μmol/L,0.720 ± 0.055
same,Average suppression rate,[4]; 200 μmol/L,46.41%
same,OD value,[4]; 200 μmol/L,0.550 ± 0.086
